Assay results taken from patent publication US12421225B2, “Heteroaromatic amide derivative and medicament containing the same” (KAKEN PHARMACEUTICAL CO., LTD., priority 2018, dated 2025).

What was measured:
human Nav1.7 = human Nav1.7 (Homo sapiens (Human), UniProt Q15858); assay: Human Nav1.7 inhibitory activity evaluation (automated patch clamp QPatch16X, HEK293A cells stably expressing human Nav1.7 and human Navβ1); assay type: cell-based; conditions: human Nav1.7, automated patch clamp
Outline: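 QPatch16X whole-cell recordings at room temperature from HEK293A cells stably expressing human Nav1.7 with Navβ1, CsF-based internal solution, pH 7.4 external, 0.1% DMSO. From −100 mV holding, protocol included a 15 s hold at a potential inactivating ~30-40% of channels; IC50 from inward current at the second −10 mV pulse.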

human Nav1.5 = human Nav1.5 (Homo sapiens (Human), UniProt Q14524); assay: Human Nav1.5 inhibitory activity evaluation (automated patch clamp QPatch16X, HEK293 cells stably expressing human Nav1.5); assay type: cell-based; conditions: human Nav1.5, automated patch clamp
Chain of human Nav1.5 (Q14524 whole entry): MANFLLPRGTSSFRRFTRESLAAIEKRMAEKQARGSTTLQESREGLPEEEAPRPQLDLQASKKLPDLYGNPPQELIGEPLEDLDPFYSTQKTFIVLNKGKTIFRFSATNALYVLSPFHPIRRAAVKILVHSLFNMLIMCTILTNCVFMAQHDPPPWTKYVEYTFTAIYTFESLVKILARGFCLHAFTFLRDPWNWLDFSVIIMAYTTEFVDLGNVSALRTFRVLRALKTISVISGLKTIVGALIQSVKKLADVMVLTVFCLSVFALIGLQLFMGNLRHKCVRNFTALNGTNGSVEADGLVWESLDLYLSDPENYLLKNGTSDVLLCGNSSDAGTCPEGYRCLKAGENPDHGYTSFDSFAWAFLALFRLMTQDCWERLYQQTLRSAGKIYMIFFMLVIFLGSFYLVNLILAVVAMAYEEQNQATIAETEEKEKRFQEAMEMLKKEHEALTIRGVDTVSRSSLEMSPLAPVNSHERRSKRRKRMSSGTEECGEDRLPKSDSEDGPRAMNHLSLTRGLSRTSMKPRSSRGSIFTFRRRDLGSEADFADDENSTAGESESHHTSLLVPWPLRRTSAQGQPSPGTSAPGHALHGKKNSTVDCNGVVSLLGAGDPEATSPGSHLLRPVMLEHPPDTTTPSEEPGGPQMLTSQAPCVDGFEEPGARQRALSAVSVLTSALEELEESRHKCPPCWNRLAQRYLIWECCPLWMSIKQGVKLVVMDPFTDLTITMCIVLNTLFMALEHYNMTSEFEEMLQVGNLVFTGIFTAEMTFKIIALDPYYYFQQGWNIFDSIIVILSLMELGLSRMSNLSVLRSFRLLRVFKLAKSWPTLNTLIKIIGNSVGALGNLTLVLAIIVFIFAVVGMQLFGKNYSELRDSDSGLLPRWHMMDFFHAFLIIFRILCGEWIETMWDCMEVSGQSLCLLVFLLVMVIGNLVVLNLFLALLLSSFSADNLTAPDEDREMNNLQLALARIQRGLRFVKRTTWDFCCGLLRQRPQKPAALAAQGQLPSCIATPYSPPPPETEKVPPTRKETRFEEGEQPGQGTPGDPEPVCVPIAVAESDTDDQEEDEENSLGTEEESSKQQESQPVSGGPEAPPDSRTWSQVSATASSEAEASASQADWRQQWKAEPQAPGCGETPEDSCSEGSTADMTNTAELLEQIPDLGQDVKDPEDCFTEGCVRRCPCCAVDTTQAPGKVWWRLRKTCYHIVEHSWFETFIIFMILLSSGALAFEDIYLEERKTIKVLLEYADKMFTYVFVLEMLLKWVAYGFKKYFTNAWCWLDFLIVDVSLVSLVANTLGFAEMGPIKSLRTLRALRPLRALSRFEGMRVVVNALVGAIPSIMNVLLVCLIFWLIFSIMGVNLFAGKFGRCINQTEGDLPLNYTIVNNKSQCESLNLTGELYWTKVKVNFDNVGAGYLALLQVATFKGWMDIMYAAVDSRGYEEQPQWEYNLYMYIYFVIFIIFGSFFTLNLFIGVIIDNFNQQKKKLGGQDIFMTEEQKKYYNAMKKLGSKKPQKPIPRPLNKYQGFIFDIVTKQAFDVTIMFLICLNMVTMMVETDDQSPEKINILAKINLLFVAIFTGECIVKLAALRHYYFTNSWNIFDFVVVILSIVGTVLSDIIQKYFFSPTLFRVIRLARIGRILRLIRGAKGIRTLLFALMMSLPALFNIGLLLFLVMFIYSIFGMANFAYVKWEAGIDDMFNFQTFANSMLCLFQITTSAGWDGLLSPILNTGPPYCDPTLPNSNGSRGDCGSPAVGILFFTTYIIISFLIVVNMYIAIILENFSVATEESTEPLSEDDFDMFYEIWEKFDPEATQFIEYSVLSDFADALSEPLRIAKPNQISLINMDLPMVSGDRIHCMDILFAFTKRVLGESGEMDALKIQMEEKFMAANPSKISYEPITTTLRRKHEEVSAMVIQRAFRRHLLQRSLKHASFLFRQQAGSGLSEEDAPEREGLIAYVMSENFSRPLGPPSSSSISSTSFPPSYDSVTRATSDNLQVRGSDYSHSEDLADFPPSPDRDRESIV
Outline: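 Whole-cell automated patch clamp at room temperature on HEK293 stably expressing human Nav1.5; holding −80 mV, 20 consecutive cardiomyocyte action-potential-like test pulses before and after compound (0.1% DMSO). Inhibition measured on inward current at 20th pulse; IC50 from concentration-response curve.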

Chain of human Nav1.7 (Q15858 whole entry): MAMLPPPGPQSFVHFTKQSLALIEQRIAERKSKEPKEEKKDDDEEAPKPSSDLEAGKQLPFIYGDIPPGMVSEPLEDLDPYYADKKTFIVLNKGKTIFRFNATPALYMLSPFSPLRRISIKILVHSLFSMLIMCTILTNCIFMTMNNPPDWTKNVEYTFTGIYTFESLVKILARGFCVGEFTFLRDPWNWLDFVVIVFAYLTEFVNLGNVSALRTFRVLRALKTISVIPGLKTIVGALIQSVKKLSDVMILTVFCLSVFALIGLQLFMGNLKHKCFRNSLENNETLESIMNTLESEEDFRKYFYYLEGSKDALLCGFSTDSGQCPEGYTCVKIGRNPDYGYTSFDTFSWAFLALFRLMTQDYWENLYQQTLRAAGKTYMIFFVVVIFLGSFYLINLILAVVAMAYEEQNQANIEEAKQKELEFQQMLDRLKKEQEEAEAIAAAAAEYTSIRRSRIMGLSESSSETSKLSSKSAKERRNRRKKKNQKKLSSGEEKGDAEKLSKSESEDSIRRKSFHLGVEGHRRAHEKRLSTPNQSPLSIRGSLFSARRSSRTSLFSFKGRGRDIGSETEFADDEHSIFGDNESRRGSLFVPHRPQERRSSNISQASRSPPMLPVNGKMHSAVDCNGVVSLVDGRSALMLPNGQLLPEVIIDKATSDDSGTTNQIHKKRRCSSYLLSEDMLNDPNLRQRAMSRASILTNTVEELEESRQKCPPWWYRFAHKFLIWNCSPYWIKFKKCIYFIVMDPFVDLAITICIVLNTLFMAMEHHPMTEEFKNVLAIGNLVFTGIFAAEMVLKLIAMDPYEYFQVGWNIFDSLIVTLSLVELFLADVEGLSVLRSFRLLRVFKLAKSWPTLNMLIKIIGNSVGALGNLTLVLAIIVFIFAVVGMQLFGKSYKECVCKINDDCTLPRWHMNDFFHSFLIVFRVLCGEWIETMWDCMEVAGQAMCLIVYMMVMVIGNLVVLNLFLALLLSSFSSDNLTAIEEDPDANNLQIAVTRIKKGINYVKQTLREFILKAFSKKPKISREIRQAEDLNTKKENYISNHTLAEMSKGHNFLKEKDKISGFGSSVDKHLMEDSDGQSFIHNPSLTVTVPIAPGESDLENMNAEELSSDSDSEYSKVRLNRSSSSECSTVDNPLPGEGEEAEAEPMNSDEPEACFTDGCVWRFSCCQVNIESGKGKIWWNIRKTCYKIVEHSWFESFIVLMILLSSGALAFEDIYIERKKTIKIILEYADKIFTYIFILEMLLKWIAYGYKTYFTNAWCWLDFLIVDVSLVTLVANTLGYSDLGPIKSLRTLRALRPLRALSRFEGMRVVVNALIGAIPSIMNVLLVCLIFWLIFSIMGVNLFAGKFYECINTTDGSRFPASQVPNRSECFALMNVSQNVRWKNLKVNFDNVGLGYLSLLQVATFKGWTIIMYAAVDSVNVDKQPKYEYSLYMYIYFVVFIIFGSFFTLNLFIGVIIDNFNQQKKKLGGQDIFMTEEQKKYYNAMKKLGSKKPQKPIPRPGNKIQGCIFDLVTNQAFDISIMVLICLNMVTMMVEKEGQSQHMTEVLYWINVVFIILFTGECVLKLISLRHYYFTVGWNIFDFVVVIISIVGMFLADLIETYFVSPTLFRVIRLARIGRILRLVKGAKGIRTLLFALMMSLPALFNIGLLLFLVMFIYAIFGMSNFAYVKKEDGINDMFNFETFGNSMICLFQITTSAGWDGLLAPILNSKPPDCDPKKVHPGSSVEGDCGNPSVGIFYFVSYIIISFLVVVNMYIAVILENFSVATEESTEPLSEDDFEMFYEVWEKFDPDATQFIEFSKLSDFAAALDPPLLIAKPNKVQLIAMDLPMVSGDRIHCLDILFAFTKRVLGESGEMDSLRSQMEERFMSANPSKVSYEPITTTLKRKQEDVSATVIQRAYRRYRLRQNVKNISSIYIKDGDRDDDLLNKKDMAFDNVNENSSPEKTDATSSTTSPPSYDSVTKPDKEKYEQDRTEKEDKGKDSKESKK
Chain of human Nav1.7 (Q07699 19-218 partner): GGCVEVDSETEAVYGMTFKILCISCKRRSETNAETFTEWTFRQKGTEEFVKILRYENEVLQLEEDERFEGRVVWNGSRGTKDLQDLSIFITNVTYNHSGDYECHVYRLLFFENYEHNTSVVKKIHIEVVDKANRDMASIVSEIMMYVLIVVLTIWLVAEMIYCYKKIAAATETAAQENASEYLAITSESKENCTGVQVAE

| IC50 (human Nav1.7) | Compound | IC50 (human Nav1.5) |
| --- | --- | --- |
| < 10 µM | O=C(N[C@H]1COc2ccc(-c3ccccn3)cc2C1)c1cc2n(n1)CCC(C(F)(F)F)O2 (some centres unmarked) [Example 382] | ≥ 3 µM |
| < 1 µM | CC1(C)CCn2nc(C(=O)N[C@H]3COc4ccc(-c5ccccn5)cc4C3)cc2O1 [Example 383] | ≥ 3 µM |
| < 1 µM | N#Cc1ccc2c(c1)C[C@@H](NC(=O)c1cc3n(n1)CCC(C#CC(F)(F)F)O3)CO2 (some centres unmarked) [Example 386] | ≥ 3 µM |
| < 1 µM | CCCC1CCn2nc(C(=O)N[C@H]3COc4ccc(Cl)cc4C3)cc2O1 (some centres unmarked) [Example 389] | 1 to 3 µM |
| < 1 µM | O=C(N[C@H]1COc2ccc(COCC3CC3)cc2C1)c1cc2n(n1)CCC(C(F)(F)F)O2 (some centres unmarked) [Example 391] | ≥ 3 µM |
| < 1 µM | O=C(N[C@H]1COc2ccc(COc3ccccn3)cc2C1)c1cc2n(n1)CCC(C(F)(F)F)O2 (some centres unmarked) [Example 392] | 1 to 3 µM |
| < 1 µM | COC(C)(C)CCc1ccc2c(c1)C[C@@H](NC(=O)c1cc3n(n1)CCC(C(F)(F)F)O3)CO2 (some centres unmarked) [Example 400] | ≥ 3 µM |
| < 10 µM | O=C(N[C@H]1COc2ccc(CCN3CC(F)(F)C3)cc2C1)c1cc2n(n1)CCC(C(F)(F)F)O2 (some centres unmarked) [Example 401] | ≥ 3 µM |
| < 1 µM | O=C(N[C@H]1COc2ccc(C(F)(F)F)cc2C1)c1cc2n(n1)CCC(C#CC1CC1)O2 (some centres unmarked) [Example 402] | ≥ 3 µM |
| < 1 µM | N#Cc1ccc2c(c1)C[C@@H](NC(=O)c1cc3n(n1)CCC(COc1ccccn1)O3)CO2 (some centres unmarked) [Example 411] | ≥ 3 µM |
| < 1 µM | N#Cc1ccc2c(c1)C[C@@H](NC(=O)c1cc3n(n1)CCC(COCC(F)(F)C(F)(F)F)O3)CO2 (some centres unmarked) [Example 412] | 1 to 3 µM |
| < 10 µM | N#Cc1ccc2c(c1)C[C@@H](NC(=O)c1cc3n(n1)CCC(CSCC(F)(F)F)O3)CO2 (some centres unmarked) [Example 422] | ≥ 3 µM |
| < 1 µM | O=C(N[C@H]1COc2ccc(-c3cnccn3)cc2C1)c1cc2n(n1)CCC(COCC1CC1)O2 (some centres unmarked) [Example 425] | ≥ 3 µM |
| < 10 µM | Cn1ccc(-c2ccc3c(c2)C[C@@H](NC(=O)c2cc4n(n2)CCC(COCC2CC2)O4)CO3)n1 (some centres unmarked) [Example 426] | ≥ 3 µM |
| < 1 µM | O=C(N[C@H]1COc2ccc(-c3cscn3)cc2C1)c1cc2n(n1)CCC(COCC1CC1)O2 (some centres unmarked) [Example 427] | 1 to 3 µM |
| < 1 µM | O=C(N[C@H]1COc2ccc(-c3cncs3)cc2C1)c1cc2n(n1)CCC(COCC1CC1)O2 (some centres unmarked) [Example 428] | ≥ 3 µM |
| < 10 µM | Cn1ncc(-c2ccc3c(c2)C[C@@H](NC(=O)c2cc4n(n2)CCC(COCC2CC2)O4)CO3)n1 (some centres unmarked) [Example 429] | ≥ 3 µM |
| < 1 µM | O=C(N[C@H]1COc2ccc(C(F)(F)F)cc2C1)c1cc2n(n1)CCC(COCC(F)(F)F)O2 (some centres unmarked) [Example 432] | 1 to 3 µM |
| < 1 µM | O=C(N[C@H]1COc2ccc(CC(F)F)cc2C1)c1cc2n(n1)CCC(COC1CCC1)O2 (some centres unmarked) [Example 437] | 1 to 3 µM |
| < 1 µM | O=C(N[C@H]1COc2ccc(CCOC(F)(F)F)cc2C1)c1cc2n(n1)CC(C(F)(F)F)O2 (some centres unmarked) [Example 447] | ≥ 3 µM |
| < 1 µM | O=C(N[C@H]1COc2ccc(Cl)cc2C1)c1cc2n(n1)CC(CNCC(F)(F)F)O2 (some centres unmarked) [Example 448] | 1 to 3 µM |
| < 10 µM | N#Cc1ccc2c(c1)C[C@@H](NC(=O)c1cc3n(n1)CC(COc1ccccn1)O3)CO2 (some centres unmarked) [Example 450] | ≥ 3 µM |
| < 1 µM | O=C(N[C@H]1COc2ccc(Cl)cc2C1)c1cc2n(n1)CC(CCn1cccn1)O2 (some centres unmarked) [Example 451] | 1 to 3 µM |

| IC50 (human Nav1.7) | Compound | IC50 (human Nav1.5) |
| --- | --- | --- |
| < 10 µM | N#Cc1ccc2c(c1)C[C@@H](NC(=O)c1cc3n(n1)CC(COCC1CC1)O3)CO2 (some centres unmarked) [Example 454] | ≥ 3 µM |
| < 1 µM | O=C(N[C@H]1COc2ccc(-c3cnccn3)cc2C1)c1cc2n(n1)CC(CCOCC(F)(F)F)O2 (some centres unmarked) [Example 456] | 1 to 3 µM |
| < 1 µM | Cn1ccc(-c2ccc3c(c2)C[C@@H](NC(=O)c2cc4n(n2)CC(CCSCC(F)(F)F)O4)CO3)n1 (some centres unmarked) [Example 457] | ≥ 3 µM |
| < 1 µM | Cn1cc(-c2ccc3c(c2)C[C@@H](NC(=O)c2cc4n(n2)CC(CCOCC2CC2)O4)CO3)cn1 (some centres unmarked) [Example 460] | ≥ 3 µM |
| < 1 µM | Cn1ccc(-c2ccc3c(c2)C[C@@H](NC(=O)c2cc4n(n2)CC(CCOCC2CC2)O4)CO3)n1 (some centres unmarked) [Example 461] | 1 to 3 µM |
| < 1 µM | O=C(N[C@H]1COc2ccc(CCOC(F)(F)F)cc2C1)c1cc2n(n1)CC(COC(F)F)O2 (some centres unmarked) [Example 462] | ≥ 3 µM |
| < 1 µM | N#Cc1ccc2c(c1)C[C@@H](NC(=O)c1cc3n(n1)CC(COCC1CCC1)O3)CO2 (some centres unmarked) [Example 464] | ≥ 3 µM |
| < 1 µM | O=C(N[C@H]1COc2ccc(CC(F)F)cc2C1)c1cc2n(n1)CC(CCOCC(F)(F)F)O2 (some centres unmarked) [Example 466] | 1 to 3 µM |
| < 1 µM | COc1ncc(-c2ccc3c(c2)C[C@@H](NC(=O)c2cc4n(n2)CC(COCC2CC2)O4)CO3)cn1 (some centres unmarked) [Example 468] | ≥ 3 µM |
| < 1 µM | N#Cc1ccc2c(c1)C[C@@H](NC(=O)c1cc3n(n1)CC(CCOC1CCC1)O3)CO2 (some centres unmarked) [Example 470] | 1 to 3 µM |
| < 1 µM | O=C(N[C@H]1COc2ccc(Cl)cc2C1)c1nn2c(c1-c1ccccc1)OCCCC2 [Example 481] | ≥ 3 µM |
| < 1 µM | O=C(N[C@H]1COc2ccccc2C1)c1cc2n(n1)CCN(CC(F)(F)C(F)(F)F)C2 [Example 487] | 1 to 3 µM |
| < 10 µM | O=C(N[C@H]1COc2ccccc2C1)c1cc2n(n1)CCN(CC1CC(F)(F)C1)C2 [Example 488] | ≥ 3 µM |
| < 10 µM | N#Cc1ccc2c(c1)C[C@@H](NC(=O)c1cc3n(n1)CCN(CC(F)(F)C(F)(F)F)C3)CO2 [Example 489] | ≥ 3 µM |
| < 10 µM | O=C(N[C@H]1COc2ccccc2C1)c1cc2n(n1)CCN(CC(C1CC1)C1CC1)C2 [Example 490] | ≥ 3 µM |
| < 10 µM | N#Cc1ccc2c(c1)C[C@@H](NC(=O)c1cc3n(n1)CCN(CCC1CC1)C3)CO2 [Example 491] | ≥ 3 µM |
| < 10 µM | O=C(N[C@H]1COc2ccc(C(F)F)cc2C1)c1cc2n(n1)CCN(Cc1ccccn1)C2 [Example 492] | ≥ 3 µM |
| < 1 µM | O=C(N[C@H]1COc2ccc(Cl)cc2C1)c1cc2n(n1)CCN(CC(C(F)(F)F)C(F)(F)F)C2 [Example 493] | 1 to 3 µM |
| < 1 µM | O=C(N[C@H]1COc2ccc(Cl)cc2C1)c1cc2n(n1)CCN(CC1CCC1(F)F)C2 (some centres unmarked) [Example 494] | 1 to 3 µM |
| < 1 µM | O=C(N[C@H]1COc2ccc(Cl)cc2C1)c1cc2n(n1)CCN(CC(F)(F)C1CC1)C2 [Example 495] | ≥ 3 µM |
| < 1 µM | N#Cc1ccc2c(c1)C[C@@H](NC(=O)c1cc3n(n1)CCN(CCC1CCC1)C3)CO2 [Example 496] | 1 to 3 µM |
| < 1 µM | N#Cc1ccc2c(c1)C[C@@H](NC(=O)c1cc3n(n1)CCN(Cc1ccccc1F)C3)CO2 [Example 497] | ≥ 3 µM |
| < 1 µM | N#Cc1ccc2c(c1)C[C@@H](NC(=O)c1cc3n(n1)CCN(Cc1ccccc1C(F)(F)F)C3)CO2 [Example 499] | 1 to 3 µM |
